From PubChem BioAssay (NCI)
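A five-concentration, 48-hour dose response in 96-well plates underlies each endpoint, interpolated linearly between surrounding concentrations. GI50: concentration for 50% inhibition of growth. The concentration for full growth arrest is given as TGI.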

Experiments:
Experiment in all cases: inhibition of tumour cell growth, NCI panel, 48 h
[1] = test system: OVCAR-5 ovarian
[2] = test system: MCF7 breast
[3] = test system: UO-31 renal
[4] = test system: MDA-MB-435
[5] = test system: KM12 colon
[6] = test system: MDA-MB-231 breast
[7] = test system: CCRF-CEM leukemia
[8] = test system: OVCAR-4 ovarian
[9] = test system: NCI/ADR-RES ovarian
[10] = test system: SK-OV-3 ovarian
[11] = test system: T-47D breast
[12] = test system: NCI-H522 lung
[13] = test system: SNB-75 CNS
[14] = test system: HCT-15 colon
[15] = test system: UACC-62 melanoma
[16] = test system: TK-10 renal
[17] = test system: U251 CNS
[18] = test system: HOP-62 NSCLC
[19] = test system: ACHN renal
[20] = test system: SK-MEL-28 melanoma
[21] = test system: M14 melanoma
[22] = test system: 786-0 renal
[23] = test system: OVCAR-8 ovarian
[24] = test system: UACC-257 melanoma
[25] = test system: SF-539 CNS
[26] = test system: SNB-19 CNS
[27] = test system: NCI-H460 lung
[28] = test system: RPMI-8226 leukemia
[29] = test system: EKVX NSCLC
[30] = test system: MALME-3M melanoma
[31] = test system: COLO 205 colon
[32] = test system: SN12C renal
[33] = test system: A498 renal
[34] = test system: K-562 leukemia
[35] = test system: OVCAR-3 ovarian
[36] = test system: SK-MEL-5 melanoma
[37] = test system: NCI-H226 lung
[38] = test system: A549 NSCLC
[39] = test system: MOLT-4 leukemia
[40] = test system: SK-MEL-2 melanoma
[41] = test system: SR leukemia
[42] = test system: HCT-116 colon
[43] = test system: HCC-2998 colon
[44] = test system: HOP-92 NSCLC
[45] = test system: SF-295 CNS
[46] = test system: LOX IMVI melanoma
[47] = test system: HL-60(TB) leukemia
[48] = test system: IGROV1 ovarian
[49] = test system: BT-549 breast
[50] = test system: NCI-H23 lung
[51] = test system: CAKI-1 renal
[52] = test system: SW-620 colon
[53] = test system: HT29 colon
[54] = test system: SF-268 CNS
[55] = test system: HS 578T breast
[56] = test system: PC-3 prostate
[57] = test system: DU-145 prostate
[58] = test system: RXF 393 renal

CN1CCN(c2nc(-c3cnc4ccccc4n3)cc3ccccc23)CC1
GI50 [1]: > 36 µM | TGI [1]: > 72.9 µM | GI50 [2]: 6.61 µM | TGI [2]: 20.7 µM | GI50 [3]: 3.67 µM | TGI [3]: > 49.3 µM | GI50 [4]: 3.53 µM | TGI [4]: 12.7 µM | GI50 [5]: > 64.6 µM | TGI [5]: > 100 µM | GI50 [6]: 6.47 µM | TGI [6]: > 50.3 µM | GI50 [7]: 9.44 µM | TGI [7]: > 90.3 µM | GI50 [8]: > 43.8 µM | TGI [8]: > 91.1 µM | GI50 [9]: 21.5 µM | TGI [9]: > 100 µM | GI50 [10]: > 44.8 µM | TGI [10]: > 72 µM | GI50 [11]: 12.4 µM | TGI [11]: 31.2 µM | GI50 [12]: 18.1 µM | TGI [12]: > 56.8 µM | GI50 [13]: 16.7 µM | TGI [13]: > 88.6 µM | GI50 [14]: 2950 nM | TGI [14]: 9.19 µM | GI50 [15]: 2840 nM | TGI [15]: 8.23 µM | GI50 [16]: > 41.8 µM | TGI [16]: > 62.7 µM | GI50 [17]: 8 µM | TGI [17]: > 48.4 µM | GI50 [18]: > 38.2 µM | TGI [18]: > 58.9 µM | GI50 [19]: 9.5 µM | TGI [19]: > 66.3 µM | GI50 [20]: 2290 nM | TGI [20]: 5.27 µM | GI50 [21]: 1880 nM | TGI [21]: 3.65 µM | GI50 [22]: 10.9 µM | TGI [22]: 24 µM | GI50 [23]: 10.3 µM | TGI [23]: > 100 µM | GI50 [24]: 1890 nM | TGI [24]: 3.91 µM | GI50 [25]: 8 µM | TGI [25]: > 51.2 µM | GI50 [26]: > 53.7 µM | TGI [26]: > 100 µM | GI50 [27]: 3.67 µM | TGI [27]: 13.1 µM | GI50 [28]: 3.04 µM | TGI [28]: 13 µM | GI50 [29]: > 56.8 µM | TGI [29]: > 100 µM | GI50 [30]: 4.45 µM | TGI [30]: 9.15 µM | GI50 [31]: 1840 nM | TGI [31]: 3.67 µM | GI50 [32]: 12.6 µM | TGI [32]: > 48.6 µM | GI50 [33]: > 68.4 µM | TGI [33]: > 100 µM | GI50 [34]: 2300 nM | TGI [34]: 6.34 µM | GI50 [35]: 18.8 µM | TGI [35]: > 100 µM | GI50 [36]: 7.39 µM | TGI [36]: > 50.4 µM | GI50 [37]: 35.8 µM | TGI [37]: > 100 µM | GI50 [38]: > 32.1 µM | TGI [38]: > 100 µM | GI50 [39]: 4.7 µM | TGI [39]: > 48.9 µM | GI50 [40]: 30.8 µM | TGI [40]: > 54.7 µM | GI50 [41]: 2020 nM | TGI [41]: 6.04 µM | GI50 [42]: 3.51 µM | TGI [42]: 8.19 µM | GI50 [43]: 2170 nM | TGI [43]: 5.11 µM | GI50 [44]: 2760 nM | TGI [44]: > 69.7 µM | GI50 [45]: 7.88 µM | TGI [45]: 20.3 µM | GI50 [46]: 2820 nM | TGI [46]: 7.66 µM | GI50 [47]: 4.21 µM | TGI [47]: 9.46 µM | GI50 [48]: 7.96 µM | TGI [48]: > 55.2 µM | GI50 [49]: 39.6 µM | TGI [49]: > 79.3 µM | GI50 [50]: 30.7 µM | TGI [50]: > 100 µM | GI50 [51]: 9.79 µM | TGI [51]: > 100 µM | GI50 [52]: 2220 nM | TGI [52]: 5.11 µM | GI50 [53]: 3.39 µM | TGI [53]: 11.7 µM | GI50 [54]: > 46.8 µM | TGI [54]: > 100 µM | GI50 [55]: 15.1 µM | TGI [55]: > 67.6 µM | GI50 [56]: 10.3 µM | TGI [56]: > 100 µM | GI50 [57]: > 52.1 µM | TGI [57]: > 100 µM | GI50 [58]: 4.97 µM | TGI [58]: 15.1 µM
